ChEMBL document CHEMBL3603789, “N-Lipidated Peptide Dimers: Effective Antibacterial Agents against Gram-Negative Pathogens through Lipopolysaccharide Permeabilization” (J Med Chem, 2015)
≈ marks a conversion by molar mass, not a printed value. Bridge positions count the residues as written; N and C are the ends. Peptide text beside a SMILES is read from it. I, II: the chains in the order shown. * marks the point of attachment. Myristoyl = CCCCCCCCCCCCCC(=O)*; Lauroyl = CCCCCCCCCCCC(=O)*; Decanoyl = CCCCCCCCCC(=O)*; Octanoyl = CCCCCCCC(=O)*; Hexanoyl = CCCCCC(=O)*; Butyryl = CCCC(=O)*

Tests used:
Escherichia coli = experiment: Antibacterial activity against Escherichia coli ATCC 25922 after 24 hrs by broth microdilution method; format: functional; settings: ATCC 25922, 24 h
Klebsiella pneumoniae = experiment: Antibacterial activity against Klebsiella pneumoniae DM4299 after 24 hrs by broth microdilution method; format: functional; settings: DM4299, 24 h
[1] = Toxicity in New Zealand white rabbit erythrocytes assessed as hemolytic activity after 60 mins; format: cell-based, Oryctolagus cuniculus; settings: erythrocyte, 1 h
Pseudomonas aeruginosa [2] = experiment: Antibacterial activity against Pseudomonas aeruginosa DM23155 after 24 hrs by broth microdilution method; format: functional; settings: DM23155, 24 h
Pseudomonas aeruginosa [3] = experiment: Induction of cytoplasmic membrane disruption in Pseudomonas aeruginosa DM23155 assessed as membrane integrity at 1 to 2 times MIC after 1 hr by fluorescence assay; format: functional
Lipopolysaccharide (LPS) [4] = experiment: Displacement of dansylcadaverine from Escherichia coli 0111:B4 LPS at 15 to 30 uM after 5 mins by high-throughput fluorescence displacement assay
[5] = Induction of calcein leakage from DOPE/DOPG artificial membrane at 1:32 ratio of compound to lipid by fluorescence assay; format: physicochemical
Lipopolysaccharide (LPS) [6] = experiment: Induction of Escherichia coli 0111:B4 LPS neutralization using p-nitroaniline assessed as concentration required to neutralize 50% after 1 hr by limulus amebocyte lysate assay
Pseudomonas aeruginosa [7] = experiment: Induction of 1-N-phenylnaphthylamine uptake in Pseudomonas aeruginosa DM23155 at 400 uM after 1 hr by fluorescence assay relative to polymyxin B; format: functional

Compound	MIC (Escherichia coli)	MIC (Klebsiella pneumoniae)	HC10 [1]	MIC (Pseudomonas aeruginosa [2])	Activity (Pseudomonas aeruginosa [3])	Activity (Lipopolysaccharide (LPS) [4])	Activity [5]	EC50 (Lipopolysaccharide (LPS) [6])	Activity (Pseudomonas aeruginosa [7])
CCCCCCCCCCCCCC(=O)N[C@@H](CCCNC(=N)N)C(=O)NCC(=O)N[C@@H](CCCNC(=N)N)C(=O)N[C@@H](CCCCN)C(=O)NCC(=O)NCC(=O)N[C@@H](CCCNC(=N)N)C(=O)N[C@@H](CCCNC(=N)N)C(=O)N[C@@H](CCCCN)C(=O)N[C@@H](CCCCN)C(=O)O (Myristoyl-RGRKGGRRKK-OH)	6 µM (≈ 8.45 µg/mL)	10 µM (≈ 14.1 µg/mL)	6670 µg/mL	6 µM (≈ 8.45 µg/mL)	–	–	–	–	–
CCCCCC(=O)N[C@@H](CCCNC(=N)N)C(=O)NCC(=O)N[C@@H](CCCNC(=N)N)C(=O)N[C@@H](CCCCN)C(=O)NCC(=O)NCC(=O)N[C@@H](CCCNC(=N)N)C(=O)N[C@@H](CCCNC(=N)N)C(=O)N[C@@H](CCCCN)C(=O)N[C@@H](CCCCN)C(=O)O (Hexanoyl-RGRKGGRRKK-OH)	20 µM (≈ 25.9 µg/mL)	> 80 µM	> 10000 µg/mL	> 80 µM	–	–	–	–	–
CCCC(=O)N[C@@H](CCCNC(=N)N)C(=O)NCC(=O)N[C@@H](CCCNC(=N)N)C(=O)N[C@@H](CCCCN)C(=O)N[C@H](C(=O)N[C@H](C(=O)N[C@@H](CCCNC(=N)N)C(=O)N[C@@H](CCCNC(=N)N)C(=O)NCCCC[C@H](NC(=O)[C@H](CCCNC(=N)N)NC(=O)[C@H](CCCNC(=N)N)NC(=O)[C@@H](NC(=O)[C@@H](NC(=O)[C@H](CCCCN)NC(=O)[C@H](CCCNC(=N)N)NC(=O)CNC(=O)[C@H](CCCNC(=N)N)NC(=O)CCC)C(C)C)C(C)C)C(=O)N[C@@H](CCCCN)C(=O)O)C(C)C)C(C)C (I: Butyryl-RGRKVVRRKK-OH / II: Butyryl-RGRKVVRR; amide I:9-II:C)	3 µM (≈ 7.29 µg/mL)	6 µM (≈ 14.6 µg/mL)	> 10000 µg/mL	10 µM (≈ 24.3 µg/mL)	>80%	93.4%	Active	> 1000 µM	–
CCCCCCCCCCCCCC(=O)N[C@@H](CCCNC(=N)N)C(=O)NCC(=O)N[C@@H](CCCNC(=N)N)C(=O)N[C@@H](CCCCN)C(=O)N[C@H](C(=O)N[C@H](C(=O)N[C@@H](CCCNC(=N)N)C(=O)N[C@@H](CCCNC(=N)N)C(=O)N[C@@H](CCCCN)C(=O)N[C@@H](CCCCN)C(=O)O)C(C)C)C(C)C (Myristoyl-RGRKVVRRKK-OH)	6 µM (≈ 8.96 µg/mL)	6 µM (≈ 8.96 µg/mL)	8897 µg/mL	10 µM (≈ 14.9 µg/mL)	–	–	–	–	–
CCCCCCCCCCCC(=O)N[C@@H](CCCNC(=N)N)C(=O)NCC(=O)N[C@@H](CCCNC(=N)N)C(=O)N[C@@H](CCCCN)C(=O)N[C@H](C(=O)N[C@H](C(=O)N[C@@H](CCCNC(=N)N)C(=O)N[C@@H](CCCNC(=N)N)C(=O)N[C@@H](CCCCN)C(=O)N[C@@H](CCCCN)C(=O)O)C(C)C)C(C)C (Lauroyl-RGRKVVRRKK-OH)	6 µM (≈ 8.79 µg/mL)	20 µM (≈ 29.3 µg/mL)	> 10000 µg/mL	10 µM (≈ 14.6 µg/mL)	–	–	–	–	–
CC(=O)N[C@@H](CCCNC(=N)N)C(=O)NCC(=O)N[C@@H](CCCNC(=N)N)C(=O)N[C@@H](CCCCN)C(=O)NCC(=O)NCC(=O)N[C@@H](CCCNC(=N)N)C(=O)N[C@@H](CCCNC(=N)N)C(=O)NCCCC[C@H](NC(=O)[C@H](CCCNC(=N)N)NC(=O)[C@H](CCCNC(=N)N)NC(=O)CNC(=O)CNC(=O)[C@H](CCCCN)NC(=O)[C@H](CCCNC(=N)N)NC(=O)CNC(=O)[C@H](CCCNC(=N)N)NC(C)=O)C(=O)N[C@@H](CCCCN)C(=O)O (I: Ac-RGRKGGRRKK-OH / II: Ac-RGRKGGRR; amide I:9-II:C)	1.5 µM (≈ 3.31 µg/mL)	3 µM (≈ 6.62 µg/mL)	> 10000 µg/mL	6 µM (≈ 13.2 µg/mL)	–	56.1%	–	> 1000 µM	1.6%
CCCCCCCCCC(=O)N[C@@H](CCCNC(=N)N)C(=O)NCC(=O)N[C@@H](CCCNC(=N)N)C(=O)N[C@@H](CCCCN)C(=O)N[C@H](C(=O)N[C@H](C(=O)N[C@@H](CCCNC(=N)N)C(=O)N[C@@H](CCCNC(=N)N)C(=O)N[C@@H](CCCCN)C(=O)N[C@@H](CCCCN)C(=O)O)C(C)C)C(C)C (Decanoyl-RGRKVVRRKK-OH)	6 µM (≈ 8.62 µg/mL)	80 µM (≈ 115 µg/mL)	> 10000 µg/mL	20 µM (≈ 28.7 µg/mL)	–	78%	–	566 µM	–
CCCCCCCCCCCC(=O)N[C@@H](CCCNC(=N)N)C(=O)NCC(=O)N[C@@H](CCCNC(=N)N)C(=O)N[C@@H](CCCCN)C(=O)NCC(=O)NCC(=O)N[C@@H](CCCNC(=N)N)C(=O)N[C@@H](CCCNC(=N)N)C(=O)N[C@@H](CCCCN)C(=O)N[C@@H](CCCCN)C(=O)O (Lauroyl-RGRKGGRRKK-OH)	6 µM (≈ 8.28 µg/mL)	10 µM (≈ 13.8 µg/mL)	8602 µg/mL	6 µM (≈ 8.28 µg/mL)	–	–	–	–	–
CC(=O)N[C@@H](CCCNC(=N)N)C(=O)NCC(=O)N[C@@H](CCCNC(=N)N)C(=O)N[C@@H](CCCCN)C(=O)NCC(=O)NCC(=O)N[C@@H](CCCNC(=N)N)C(=O)N[C@@H](CCCNC(=N)N)C(=O)N[C@@H](CCCCN)C(=O)N[C@@H](CCCCN)C(=O)O (Ac-RGRKGGRRKK-OH)	20 µM (≈ 24.8 µg/mL)	> 80 µM	> 10000 µg/mL	> 80 µM	–	–	–	–	–
CCCC(=O)N[C@@H](CCCNC(=N)N)C(=O)NCC(=O)N[C@@H](CCCNC(=N)N)C(=O)N[C@@H](CCCCN)C(=O)NCC(=O)NCC(=O)N[C@@H](CCCNC(=N)N)C(=O)N[C@@H](CCCNC(=N)N)C(=O)N[C@@H](CCCCN)C(=O)N[C@@H](CCCCN)C(=O)O (Butyryl-RGRKGGRRKK-OH)	40 µM (≈ 50.7 µg/mL)	80 µM (≈ 101 µg/mL)	> 10000 µg/mL	80 µM (≈ 101 µg/mL)	–	–	–	–	–
CC(C)[C@H](NC(=O)[C@H](CCCCN)NC(=O)[C@H](CCCNC(=N)N)NC(=O)CNC(=O)[C@@H](N)CCCNC(=N)N)C(=O)N[C@H](C(=O)N[C@@H](CCCNC(=N)N)C(=O)N[C@@H](CCCNC(=N)N)C(=O)N[C@@H](CCCCN)C(=O)N[C@@H](CCCCN)C(=O)O)C(C)C (H-RGRKVVRRKK-OH)	10 µM (≈ 12.8 µg/mL)	> 80 µM	> 10000 µg/mL	80 µM (≈ 103 µg/mL)	–	–	–	–	–
N=C(N)NCCC[C@H](NC(=O)CNC(=O)[C@@H](N)CCCNC(=N)N)C(=O)N[C@@H](CCCCN)C(=O)NCC(=O)NCC(=O)N[C@@H](CCCNC(=N)N)C(=O)N[C@@H](CCCNC(=N)N)C(=O)N[C@@H](CCCCN)C(=O)N[C@@H](CCCCN)C(=O)O (H-RGRKGGRRKK-OH)	20 µM (≈ 24 µg/mL)	> 80 µM	> 10000 µg/mL	> 80 µM	–	–	–	–	–
CC(=O)N[C@@H](CCCNC(=N)N)C(=O)NCC(=O)N[C@@H](CCCNC(=N)N)C(=O)N[C@@H](CCCCN)C(=O)N[C@H](C(=O)N[C@H](C(=O)N[C@@H](CCCNC(=N)N)C(=O)N[C@@H](CCCNC(=N)N)C(=O)N[C@@H](CCCCN)C(=O)N[C@@H](CCCCN)C(=O)O)C(C)C)C(C)C (Ac-RGRKVVRRKK-OH)	40 µM (≈ 53 µg/mL)	> 80 µM	> 10000 µg/mL	> 80 µM	–	–	–	–	–
CCCCCCCC(=O)N[C@@H](CCCNC(=N)N)C(=O)NCC(=O)N[C@@H](CCCNC(=N)N)C(=O)N[C@@H](CCCCN)C(=O)N[C@H](C(=O)N[C@H](C(=O)N[C@@H](CCCNC(=N)N)C(=O)N[C@@H](CCCNC(=N)N)C(=O)N[C@@H](CCCCN)C(=O)N[C@@H](CCCCN)C(=O)O)C(C)C)C(C)C (Octanoyl-RGRKVVRRKK-OH)	6 µM (≈ 8.45 µg/mL)	> 80 µM	> 10000 µg/mL	10 µM (≈ 14.1 µg/mL)	–	69.9%	–	> 1000 µM	–
CCCC(=O)N[C@@H](CCCNC(=N)N)C(=O)NCC(=O)N[C@@H](CCCNC(=N)N)C(=O)N[C@@H](CCCCN)C(=O)N[C@H](C(=O)N[C@H](C(=O)N[C@@H](CCCNC(=N)N)C(=O)N[C@@H](CCCNC(=N)N)C(=O)N[C@@H](CCCCN)C(=O)N[C@@H](CCCCN)C(=O)O)C(C)C)C(C)C (Butyryl-RGRKVVRRKK-OH)	40 µM (≈ 54.1 µg/mL)	> 80 µM	> 10000 µg/mL	> 80 µM	–	–	–	–	–
CCCCCC(=O)N[C@@H](CCCNC(=N)N)C(=O)NCC(=O)N[C@@H](CCCNC(=N)N)C(=O)N[C@@H](CCCCN)C(=O)N[C@H](C(=O)N[C@H](C(=O)N[C@@H](CCCNC(=N)N)C(=O)N[C@@H](CCCNC(=N)N)C(=O)N[C@@H](CCCCN)C(=O)N[C@@H](CCCCN)C(=O)O)C(C)C)C(C)C (Hexanoyl-RGRKVVRRKK-OH)	10 µM (≈ 13.8 µg/mL)	80 µM (≈ 110 µg/mL)	> 10000 µg/mL	80 µM (≈ 110 µg/mL)	–	–	–	–	–
CCCCCCCCCC(=O)N[C@@H](CCCNC(=N)N)C(=O)NCC(=O)N[C@@H](CCCNC(=N)N)C(=O)N[C@@H](CCCCN)C(=O)NCC(=O)NCC(=O)N[C@@H](CCCNC(=N)N)C(=O)N[C@@H](CCCNC(=N)N)C(=O)N[C@@H](CCCCN)C(=O)N[C@@H](CCCCN)C(=O)O (Decanoyl-RGRKGGRRKK-OH)	10 µM (≈ 13.5 µg/mL)	20 µM (≈ 27.1 µg/mL)	> 10000 µg/mL	10 µM (≈ 13.5 µg/mL)	–	–	–	–	–
